According to PMC5652037 (EBioMedicine, 2017):
pIC50: −log10 of the molar value.

Biological target: γ-secretase (catalytic subunit presenilin 1, PS1) (Cricetulus griseus, UniProt G3HNF2)
Assay: Aβ[…] secretion
Assay type: cell-based

- pIC50: 7.33
SMILES: CC(C)[C@H](O)C(=O)N[C@@H](C)C(=O)N[C@@H]1C(=O)N(C)CCc2ccccc21 [semagacestat]
